One assay relates to L1210/0 cells. In words: Cross-resistance studies: growth inhibition of doxorubicin-sensitive L1210/0 cells. The following applies: L1210/0 (doxorubicin sensitive). It is filed as cell-based.
Another assay concerns L1210/Dx cells. In words: Cross-resistance studies: growth inhibition of doxorubicin-resistant L1210/Dx cells. It is filed as cell-based. To be noted: for (IC50) 0/(IC50) Dx: L1210/0 and L1210/Dx; for IC50: Mus musculus, L1210/Dx (doxorubicin resistant).

Molecules are shown by their SMILES.

One may read the IC50 as the concentration that gives 50% inhibition. A low value points to higher potency.

`COc1cccc2c1C(=O)c1c(O)c3c(c(O)c1C2=O)C[C@@](O)(C(=O)CO)C[C@@H]3O[C@H]1C[C@H](N)[C@H](O)[C@H](C)O1` [Doxorubicin] had an IC50 in the assay with L1210/0 cells of 28 nM. For the same compound, in the assay with L1210/Dx cells, the “(IC50) 0/(IC50) Dx” value is 26.1 and the IC50 was found to be 730 nM.
In the assay with L1210/0 cells, `COc1cc(NS(C)(=O)=O)ccc1Nc1c2ccccc2nc2ccccc12` [m-AMSA] registered an IC50 of 0.1 to 1 nM. Moreover, in the assay on L1210/Dx cells, the “(IC50) 0/(IC50) Dx” value is recorded as 61-610 and the midpoint of inhibition, the IC50, lay at 61 nM.
